Source: PMC2911226, “Structural and Biochemical Characterization of the Human Cyclophilin Family of Peptidyl-Prolyl Isomerases” (PLoS Biology, 2010)

Tests used:
[1] = biological target: T1, NKTR (Homo sapiens, UniProt P30414); experiment: Thermal stabilization assay (StarGazer static light scattering); type: binding; conditions: protein approximately 20 µM, compound 50 µM; shift vs basal Tagg
T1 construct: His6 with thrombin cleavage site (N); made in house; host or cells: E. coli BL21 Gold DE3
T1 sequence (P30414 10-175 limits assumed): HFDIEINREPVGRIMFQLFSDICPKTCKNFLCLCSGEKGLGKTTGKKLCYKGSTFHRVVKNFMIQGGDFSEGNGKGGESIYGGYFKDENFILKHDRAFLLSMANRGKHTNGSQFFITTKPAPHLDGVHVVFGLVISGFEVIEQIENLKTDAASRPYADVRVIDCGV
Text: (§1) In order to elucidate the function of residues in the extended active site of the PPIase domain of the human cyclophilins, we probed the binding and catalytic function of these domains against either substrate or small-molecule inhibitors (see Figure 1 and Datapack S1 for graphical and tabular depictions of the active site). Three assays were utilized to explore these functions. […] This assay has been shown in several studies to be a reliable readout of small molecule binding for kinase and other enzyme families,[38]. […] Because of the inherent thermal stability characteristics of PPID and RanBP2, this technique was unable to distinguish between apo and cyclosporin-bound forms of those domains.
(§2) All protein samples used for static light scattering (StarGazer) trials were assessed for purity utilizing SDS-PAGE and verified for mass accuracy using mass spectrometry. Methods were generally as described as in [38]; protein at approximately 20 µM concentration was heated from room temperature to 80°C in the presence or absence of small molecules, including cyclosporins A, C, D, or H (LKT Labs, MN, USA). The […] were originally prepared in 100% DMSO at 50–100 mM concentration, then diluted to 50 µM for screening, thereby ensuring the final DMSO concentration was less than 5% during the experiment. […] Each compound was tested at least twice.

[2] = biological target: T2, PPIA (Homo sapiens, UniProt P62937); experiment: as above; type: binding; conditions: protein approximately 20 µM, compound 50 µM; shift vs basal Tagg
T2 construct: His6 (thrombin cleavage site) (N); made in house; host or cells: E. coli BL21 Gold DE3
T2 sequence (P62937 7-163 limits assumed): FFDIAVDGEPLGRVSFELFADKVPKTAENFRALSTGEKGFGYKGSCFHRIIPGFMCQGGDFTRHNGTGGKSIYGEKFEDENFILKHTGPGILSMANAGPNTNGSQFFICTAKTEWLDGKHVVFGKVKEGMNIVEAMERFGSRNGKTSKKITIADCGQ
Text: as §1, §2

[3] = biological target: T3, PPIB (Homo sapiens, UniProt P23284); experiment: as above; type: binding; conditions: protein approximately 20 µM, compound 50 µM; shift vs basal Tagg
T3 construct: His6 (thrombin cleavage site) (N); made in house; host or cells: E. coli BL21 Gold DE3
T3 sequence (P23284 47-204 limits assumed): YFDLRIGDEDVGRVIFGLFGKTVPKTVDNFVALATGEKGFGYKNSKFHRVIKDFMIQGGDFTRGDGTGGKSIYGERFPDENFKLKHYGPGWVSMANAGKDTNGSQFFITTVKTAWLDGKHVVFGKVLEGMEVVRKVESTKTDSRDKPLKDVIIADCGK
Text: as §1, §2

[4] = biological target: T4, PPIC (Homo sapiens, UniProt P45877); experiment: as above; type: binding; conditions: protein approximately 20 µM, compound 50 µM; shift vs basal Tagg
T4 construct: His6 (thrombin cleavage site) (N); made in house; host or cells: E. coli BL21 Gold DE3
T4 sequence (P45877 41-198 limits assumed): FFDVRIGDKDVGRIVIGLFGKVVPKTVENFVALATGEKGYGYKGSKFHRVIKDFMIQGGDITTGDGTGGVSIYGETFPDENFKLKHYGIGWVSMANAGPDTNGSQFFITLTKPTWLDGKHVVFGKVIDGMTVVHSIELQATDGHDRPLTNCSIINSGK
Text: as §1, §2

[5] = biological target: T5, PPIE (Homo sapiens, UniProt Q9UNP9); experiment: as above; type: binding; conditions: protein approximately 20 µM, compound 50 µM; shift vs basal Tagg
T5 construct: His6 (thrombin cleavage site) (N); made in house; host or cells: E. coli BL21 Gold DE3
T5 sequence (Q9UNP9 143-299 limits assumed): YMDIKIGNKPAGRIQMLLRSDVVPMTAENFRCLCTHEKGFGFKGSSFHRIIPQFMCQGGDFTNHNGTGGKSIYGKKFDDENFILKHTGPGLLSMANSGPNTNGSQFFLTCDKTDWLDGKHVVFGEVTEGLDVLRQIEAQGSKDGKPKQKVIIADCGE
Text: as §1, §2

[6] = biological target: T6, PPIF (Homo sapiens, UniProt P30405); experiment: as above; type: binding; conditions: protein approximately 20 µM, compound 50 µM; shift vs basal Tagg
T6 construct: His6 (thrombin cleavage site) (N); made in house; host or cells: E. coli BL21 Gold DE3
T6 sequence (P30405 49-205 limits assumed): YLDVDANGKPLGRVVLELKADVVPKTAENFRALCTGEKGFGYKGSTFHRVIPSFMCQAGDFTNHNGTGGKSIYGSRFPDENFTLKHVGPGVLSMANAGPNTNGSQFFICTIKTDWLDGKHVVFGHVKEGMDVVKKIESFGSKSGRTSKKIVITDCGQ
Text: as §1, §2

[7] = biological target: T7, PPIG (Homo sapiens, UniProt Q13427); experiment: as above; type: binding; conditions: protein approximately 20 µM, compound 50 µM; shift vs basal Tagg
T7 construct: His6 (thrombin cleavage site) (N); made in house; host or cells: E. coli BL21 Gold DE3 (general method; the K125A/E126A crystallization mutant was grown in BL21 DE3 Codon Plus RIL)
T7 sequence (Q13427 11-176 limits assumed): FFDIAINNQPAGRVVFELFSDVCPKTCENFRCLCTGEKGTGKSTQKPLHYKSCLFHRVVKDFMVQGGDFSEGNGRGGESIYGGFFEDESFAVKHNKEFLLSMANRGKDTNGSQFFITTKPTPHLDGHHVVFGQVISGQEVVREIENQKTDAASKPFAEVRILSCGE
Text: as §1, §2

[8] = biological target: T8, PPIH (Homo sapiens, UniProt O43447); experiment: as above; type: binding; conditions: protein approximately 20 µM, compound 50 µM; shift vs basal Tagg
T8 construct: His6 (thrombin cleavage site) (N); made in house; host or cells: E. coli BL21 Gold DE3
T8 sequence (O43447 14-176 limits assumed): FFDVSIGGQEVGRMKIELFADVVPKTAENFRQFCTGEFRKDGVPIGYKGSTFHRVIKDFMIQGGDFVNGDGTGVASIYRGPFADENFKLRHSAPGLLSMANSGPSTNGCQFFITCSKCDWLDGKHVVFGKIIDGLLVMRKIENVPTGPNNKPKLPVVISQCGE
Text: as §1, §2

[9] = biological target: T9, PPIL1 (Homo sapiens, UniProt Q9Y3C6); experiment: as above; type: binding; conditions: protein approximately 20 µM, compound 50 µM; shift vs basal Tagg
T9 construct: His6 (thrombin cleavage site) (N); made in house; host or cells: E. coli BL21 Gold DE3
T9 sequence (Q9Y3C6 10-164 limits assumed): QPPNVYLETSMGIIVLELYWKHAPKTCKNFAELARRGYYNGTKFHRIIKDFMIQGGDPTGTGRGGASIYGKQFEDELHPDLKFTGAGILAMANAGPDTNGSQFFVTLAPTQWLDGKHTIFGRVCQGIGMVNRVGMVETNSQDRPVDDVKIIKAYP
Text: as §1, §2

[10] = biological target: T10, PPWD1 (Homo sapiens, UniProt Q96BP3); experiment: as above; type: binding; conditions: protein approximately 20 µM, compound 50 µM; shift vs basal Tagg
T10 construct: His6 with thrombin cleavage site (N); made in house; host or cells: E. coli BL21 Gold DE3
T10 sequence (Q96BP3 490-645 limits assumed): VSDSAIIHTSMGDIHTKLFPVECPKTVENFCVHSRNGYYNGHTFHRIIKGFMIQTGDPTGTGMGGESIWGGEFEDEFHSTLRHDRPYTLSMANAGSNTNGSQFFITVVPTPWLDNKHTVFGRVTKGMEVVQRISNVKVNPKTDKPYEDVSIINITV
Text: as §1, §2

[11] = biological target: T11, PPID (Homo sapiens, UniProt Q08752); experiment: NMR-based tetrapeptide activity assay (1H/1H TOCSY); type: biochemical; conditions: collapse of substrate cis/trans peaks; at least one of suc-AAPF-pNA, suc-AFPF-pNA, suc-AGPF-pNA; 25°C
T11 construct: His6 (thrombin cleavage site) (N); made in house; host or cells: E. coli BL21 Gold DE3
T11 sequence (Q08752 19-183 limits assumed): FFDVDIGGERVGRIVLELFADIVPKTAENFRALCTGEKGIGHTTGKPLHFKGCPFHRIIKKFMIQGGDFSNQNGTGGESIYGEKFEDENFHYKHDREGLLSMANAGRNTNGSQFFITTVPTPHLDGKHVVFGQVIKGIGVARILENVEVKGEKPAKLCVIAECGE
Text: (§3) A two-dimensional NMR experiment (1H/1H TOCSY) described previously,[40], the only in vitro protease-free method available to probe for both substrate binding and catalytic activity of cyclophilins, was used to assess the commercially available tetrapeptides of sequence AAPF, AFPF, and AGPF [34]. […] A number of articles have documented the drawbacks of the protease-coupled assay,[42]–[44], an obvious example being that the addition of protease to the reaction mixture in the chymotrypsin-coupled assay requires additional testing to ensure that the enzymes and substrates being screened are not proteolytic targets. […] We detected binding and turnover for at least one of the tetrapeptide substrates tested for PPIA, PPIB, PPIC, PPID, PPIE, PPIF, PPIG, PPIH, PPIL1, PPWD1, and NKTR (Table 1; see Figure S1 for representative data showing binding and activity). This correlated well with previously determined activities,[20],[21],[28],[30],[45],[46], and established activity measurements for PPIF, PPIG, and NKTR.
(§4) Most protein samples aimed at assessing binding and/or catalysis of tetrapeptide substrates were diluted to 500 µL with 10% D2O and placed into a Shigemi microcell (Allison Park, PA, USA). Typical samples contained 0.075 mM protein and 2 mM of suc-AAPF-pNA, suc-AFPF-pNA, or suc-AGPF-pNA (Bachem), along with 100 mM phosphate buffer pH 7 and 100 mM NaCl. Spectra were collected at 25°C on a Varian 600 or 900 MHz spectrometer (Palo Alto, CA, USA). Spectra were acquired using standard Varian BioPack sequences, processed using NMRpipe software and visualized using CCPN software. For samples used to assess binding of PPIA to peptides DEGPF, DFGPF, DYGPF, YGGPF, or VRGPF, samples were as above except protein concentration was 0.3 mM and spectra were collected at 10°C.

[12] = biological target: T7, PPIG; experiment: as above; type: biochemical; conditions: collapse of substrate cis/trans peaks; at least one of suc-AAPF-pNA, suc-AFPF-pNA, suc-AGPF-pNA; 25°C
Text: as §3, §4

[13] = biological target: T12, PPIL2 (Homo sapiens, UniProt Q13356); experiment: as above; type: biochemical
T12 construct: His6 with thrombin cleavage site (N); made in house; host or cells: E. coli BL21 Gold DE3
T12 sequence (Q13356 278-433 limits assumed): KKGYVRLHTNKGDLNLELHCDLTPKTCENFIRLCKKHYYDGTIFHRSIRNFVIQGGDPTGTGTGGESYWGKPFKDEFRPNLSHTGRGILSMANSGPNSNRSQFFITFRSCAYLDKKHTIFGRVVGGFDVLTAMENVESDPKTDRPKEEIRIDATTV
Text: as §3, §4

[14] = biological target: T13, SDCCAG-10 (Homo sapiens, UniProt Q6UX04); experiment: as above; type: biochemical
T13 construct: His6 with thrombin cleavage site (N); made in house; host or cells: E. coli BL21 Gold DE3
T13 sequence (Q6UX04 11-166 limits assumed): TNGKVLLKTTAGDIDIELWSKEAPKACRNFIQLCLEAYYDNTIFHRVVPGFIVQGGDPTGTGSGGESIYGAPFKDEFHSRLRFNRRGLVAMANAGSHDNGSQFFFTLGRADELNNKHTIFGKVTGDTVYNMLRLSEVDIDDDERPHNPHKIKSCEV
Text: as §3, §4

[15] = collapse of substrate cis/trans peaks, suc-AAPF-pNA, suc-AFPF-pNA, suc-AGPF-pNA, 25°C

Row | Tetrapeptide Activity [11] | Tetrapeptide Activity [12] | Binding of substrate (peak centers shift without coalescence) ([13]; Figure S1A) | Tetrapeptide Activity [13, 15] | Binding of substrate (peak centers shift without coalescence) ([14]; Figure S1A) | Tetrapeptide Activity [14, 15] | Compound | Thermal Stability ΔTagg, CsC [1] | Thermal Stability ΔTagg, CsC [2] | Thermal Stability ΔTagg, CsC [3] | Thermal Stability ΔTagg, CsC [4] | Thermal Stability ΔTagg, CsC [5] | Thermal Stability ΔTagg, CsC [6] | Thermal Stability ΔTagg, CsC [7] | Thermal Stability ΔTagg, CsC [8] | Thermal Stability ΔTagg, CsC [9] | Thermal Stability ΔTagg, CsC [10]
1 | – | – | – | – | – | – | C/C=C/C[C@@H](C)[C@@H](O)[C@H]1C(=O)N[C@@H]([C@@H](C)O)C(=O)N(C)CC(=O)N(C)[C@@H](CC(C)C)C(=O)N[C@@H](C(C)C)C(=O)N(C)[C@@H](CC(C)C)C(=O)N[C@@H](C)C(=O)N[C@H](C)C(=O)N(C)[C@@H](CC(C)C)C(=O)N(C)[C@@H](CC(C)C)C(=O)N(C)[C@@H](C(C)C)C(=O)N1C [CsC, cyclosporin C] | 3.0 °C | 1.9 °C | 3.4 °C | 7.0 °C | 6.8 °C | 10.7 °C | 2 °C | 7.3 °C | 1.7 °C | 5.2 °C
2 | active isomerases | active isomerases | binding, but not catalysis | not active | binding, but not catalysis | not active | suc-AGPF-pNA | – | – | – | – | – | – | – | – | – | –
